Measurements reported in US9149038B2, “4-amino-6-(heterocyclic)picolinates and 6-amino-2-(heterocyclic)pyrimidine-4-carboxylates and their use as herbicides” (Dow AgroSciences LLC, priority 2013, dated 2015).
Where two headings read alike, the source gives them in different places.

System: Direct Seeded Rice and weed species
Experiment: Postemergence herbicidal activity in direct seeded rice, visual rating after 20-22 days and probit GR20/GR50/GR80/GR90 (Table 14)
Type: in vivo
Conditions: for pest or weed control at 17.5 g/ha / pest or weed control at 35 g/ha / pest or weed control at 70 g/ha: post-emergence, 504 h, postemergence; for pest or weed control at 17.5 g/ha: 17.5 g ai/ha; for pest or weed control at 35 g/ha: 35 g ai/ha; for pest or weed control at 70 g/ha: 70 g ai/ha
Text: Herbicidal evaluations were made visually on a scale of 0 to 100 where 0 represents no activity and 100 represents complete plant death. Seeds or nutlets of the desired test plant species were planted in a soil matrix prepared by mixing a loam soil (43 percent silt, 19 percent clay, and 38 percent sand, with a pH of about 8.1 and an organic matter content of about 1.5 percent) and river sand in an 80 to 20 ratio. The soil matrix was contained in plastic pots with a surface area of 139.7 cm^2. When required to ensure good germination and healthy plants, a fungicide treatment and/or other chemical or physical treatment was applied. The plants were grown for 10-17 d in a greenhouse with an approximate 14-h photoperiod which was maintained at about 29° C. during the day and 26° C. during the night. Nutrients and water were added on a regular basis and supplemental lighting was provided with overhead metal halide 1000-Watt lamps as necessary. The plants were employed for testing when they reached the second or third true leaf stage. A weighed amount, determined by the highest rate to be tested, of each test compound was placed in 25 mL glass vials and dissolved in a volume of 97:3 v/v acetone-DMSO to obtain 12× stock solutions. […] The concentrated stock solutions were added to the spray solutions so that the final acetone and DMSO concentrations were 16.2% and 0.5%, respectively. Spray solutions were diluted to the appropriate final concentrations with the addition of 10 mL of an aqueous mixture of 1.5% (v/v) Agri-dex crop oil concentrate. The final spray solutions contained 1.25% (v/v) Agri-dex crop oil concentrate. Compound requirements are based upon a 12 mL application volume at a rate of 187 L/ha. Formulated compounds were applied to the plant material with an overhead Mandel track sprayer equipped with […] nozzles calibrated to deliver 187 L/ha over an application area of 0.503 square meters (m^2) at a spray height of 18 inches (43 cm) above average plant canopy height. Control plants were sprayed in the same manner with the solvent blank. The treated plants and control plants were placed in a greenhouse as described above and watered by sub-irrigation to prevent wash-off of the test compounds. After 20-22 days, the condition of the test plants, compared with that of the untreated plants, was determined visually and scored on a scale of 0 to 100 percent where 0 corresponds to no injury and 100 corresponds to complete kill and are presented as indicated in Table 4. By applying the well-accepted probit analysis as described by J. Berkson in Journal of the American Statistical Society, 48, 565 (1953) and by D. Finney in “Probit Analysis” Cambridge University Press (1952), herbicidal injury of a specific compound at various rates can be used to calculate GR20, GR50, GR80 and GR90 values, which are defined as growth reduction factors that correspond to the effective dose of herbicide required to provide plant growth reduction (GR) of 20 percent, 50 percent, 80 percent and 90 percent, respectively. Probit analysis was applied to data collected from multiple dose rates of individual compounds utilizing the procedures explained in the following examples. The data for some of the dose rates and analysis of all of the dose rates are captured in the following tables.

[1] = BRAPP (broadleaf signalgrass, Brachiaria platyphylla), read-out: Visual Growth Reduction (%) 21 Days After Application BRAPP
[2] = CYPDI (small-flower flatsedge, Cyperus difformis), read-out: Visual Growth Reduction (%) 21 Days After Application CYPDI
[3] = CYPES (yellow nutsedge, Cyperus esculentus), read-out: Visual Growth Reduction (%) 21 Days After Application CYPES
[4] = CYPIR (rice flatsedge, Cyperus iria), read-out: Visual Growth Reduction (%) 21 Days After Application CYPIR
[5] = DIGSA (large crabgrass, Digitaria sanguinalis), read-out: Visual Growth Reduction (%) 21 Days After Application DIGSA
[6] = ECHCG (barnyardgrass, Echinochloa crus-galli), read-out: Visual Growth Reduction (%) 21 Days After Application ECHCG
[7] = ECHCO (junglerice, Echinochloa colonum), read-out: Visual Growth Reduction (%) 21 Days After Application ECHCO
[8] = LEFCH (Chinese sprangletop, Leptochloa chinensis), read-out: Visual Growth Reduction (%) 21 Days After Application LEFCH
[9] = ORYSJ (Oryza sativa, rice crop), read-out: Visual Growth Reduction (%) 21 Days After Application ORYSJ
[10] = ORYSK (Oryza sativa, rice crop), read-out: Visual Growth Reduction (%) 21 Days After Application ORYSK
[11] = SCPJU (Japanese bulrush, Schoenoplectus juncoides Roxb.), read-out: Visual Growth Reduction (%) 21 Days After Application SCPJU
[12] = SEBEX (hemp sesbania, Sesbania exaltata), read-out: Visual Growth Reduction (%) 21 Days After Application SEBEX

COc1c(C(=O)O)nc(-c2ccc3c(c2)OC(F)(F)O3)c(F)c1N [Compound 25]
GR50 BRAPP (BRAPP (Brachiaria platyphylla), probit analysis, dose for 50 percent growth reduction): 4 g ai/ha | GR80 BRAPP (BRAPP (Brachiaria platyphylla), probit analysis, dose for 80 percent growth reduction): 9 g ai/ha | GR90 BRAPP (BRAPP (Brachiaria platyphylla), probit analysis, dose for 90 percent growth reduction): 13 g ai/ha | GR50 CYPDI (CYPDI (Cyperus difformis), probit analysis, dose for 50 percent growth reduction): 0.04 g ai/ha | GR80 CYPDI (CYPDI (Cyperus difformis), probit analysis, dose for 80 percent growth reduction): 1 g ai/ha | GR90 CYPDI (CYPDI (Cyperus difformis), probit analysis, dose for 90 percent growth reduction): 2 g ai/ha | GR50 CYPES (CYPES (Cyperus esculentus), probit analysis, dose for 50 percent growth reduction): 0.04 g ai/ha | GR80 CYPES (CYPES (Cyperus esculentus), probit analysis, dose for 80 percent growth reduction): 1 g ai/ha | GR90 CYPES (CYPES (Cyperus esculentus), probit analysis, dose for 90 percent growth reduction): 1 g ai/ha | GR50 CYPIR (CYPIR (Cyperus iria), probit analysis, dose for 50 percent growth reduction): 2 g ai/ha | GR80 CYPIR (CYPIR (Cyperus iria), probit analysis, dose for 80 percent growth reduction): 5 g ai/ha | GR90 CYPIR (CYPIR (Cyperus iria), probit analysis, dose for 90 percent growth reduction): 9 g ai/ha | GR50 DIGSA (DIGSA (Digitaria sanguinalis), probit analysis, dose for 50 percent growth reduction): 27 g ai/ha | GR80 DIGSA (DIGSA (Digitaria sanguinalis), probit analysis, dose for 80 percent growth reduction): 2530 g ai/ha | GR90 DIGSA (DIGSA (Digitaria sanguinalis), probit analysis, dose for 90 percent growth reduction): 27000 g ai/ha | GR50 ECHCG (ECHCG (Echinochloa crus-galli), probit analysis, dose for 50 percent growth reduction): 0.025 g ai/ha | GR80 ECHCG (ECHCG (Echinochloa crus-galli), probit analysis, dose for 80 percent growth reduction): 1 g ai/ha | GR90 ECHCG (ECHCG (Echinochloa crus-galli), probit analysis, dose for 90 percent growth reduction): 3 g ai/ha | GR50 ECHCO (ECHCO (Echinochloa colonum), probit analysis, dose for 50 percent growth reduction): 2 g ai/ha | GR80 ECHCO (ECHCO (Echinochloa colonum), probit analysis, dose for 80 percent growth reduction): 4 g ai/ha | GR90 ECHCO (ECHCO (Echinochloa colonum), probit analysis, dose for 90 percent growth reduction): 6 g ai/ha | GR50 LEFCH (LEFCH (Leptochloa chinensis), probit analysis, dose for 50 percent growth reduction): 175 g ai/ha | GR80 LEFCH (LEFCH (Leptochloa chinensis), probit analysis, dose for 80 percent growth reduction): 463 g ai/ha | GR90 LEFCH (LEFCH (Leptochloa chinensis), probit analysis, dose for 90 percent growth reduction): 770 g ai/ha | GR20 ORYSJ (ORYSJ (Oryza sativa, rice crop), probit analysis, dose for 20 percent growth reduction): 1 g ai/ha | GR20 ORYSK (ORYSK (Oryza sativa, rice crop), probit analysis, dose for 20 percent growth reduction): 3 g ai/ha | GR50 SCPJU (SCPJU (Schoenoplectus juncoides Roxb.), probit analysis, dose for 50 percent growth reduction): 0.0001 g ai/ha | GR80 SCPJU (SCPJU (Schoenoplectus juncoides Roxb.), probit analysis, dose for 80 percent growth reduction): 0.0001 g ai/ha | GR90 SCPJU (SCPJU (Schoenoplectus juncoides Roxb.), probit analysis, dose for 90 percent growth reduction): 0.0001 g ai/ha | GR50 SEBEX (SEBEX (Sesbania exaltata), probit analysis, dose for 50 percent growth reduction): 19 g ai/ha | GR80 SEBEX (SEBEX (Sesbania exaltata), probit analysis, dose for 80 percent growth reduction): 26 g ai/ha | GR90 SEBEX (SEBEX (Sesbania exaltata), probit analysis, dose for 90 percent growth reduction): 30 g ai/ha | pest or weed control at 17.5 g/ha [1]: 95 to 100% | pest or weed control at 35 g/ha [1]: 95 to 100% | pest or weed control at 70 g/ha [1]: 95 to 100% | pest or weed control at 17.5 g/ha [2]: 95 to 100% | pest or weed control at 35 g/ha [2]: 95 to 100% | pest or weed control at 70 g/ha [2]: 95 to 100% | pest or weed control at 17.5 g/ha [3]: 95 to 100% | pest or weed control at 35 g/ha [3]: 95 to 100% | pest or weed control at 70 g/ha [3]: 95 to 100% | pest or weed control at 17.5 g/ha [4]: 85 to 94% | pest or weed control at 35 g/ha [4]: 95 to 100% | pest or weed control at 70 g/ha [4]: 95 to 100% | pest or weed control at 17.5 g/ha [5]: 30 to 44% | pest or weed control at 35 g/ha [5]: 60 to 74% | pest or weed control at 70 g/ha [5]: 60 to 74% | pest or weed control at 17.5 g/ha [6]: 95 to 100% | pest or weed control at 35 g/ha [6]: 95 to 100% | pest or weed control at 70 g/ha [6]: 95 to 100% | pest or weed control at 17.5 g/ha [7]: 95 to 100% | pest or weed control at 35 g/ha [7]: 95 to 100% | pest or weed control at 70 g/ha [7]: 95 to 100% | pest or weed control at 17.5 g/ha [8]: 0 to 29% | pest or weed control at 35 g/ha [8]: 0 to 29% | pest or weed control at 70 g/ha [8]: 0 to 29% | pest or weed control at 17.5 g/ha [9]: 85 to 94% | pest or weed control at 35 g/ha [9]: 95 to 100% | pest or weed control at 70 g/ha [9]: 95 to 100% | pest or weed control at 17.5 g/ha [10]: 85 to 94% | pest or weed control at 35 g/ha [10]: 85 to 94% | pest or weed control at 70 g/ha [10]: 95 to 100% | pest or weed control at 17.5 g/ha [11]: 95 to 100% | pest or weed control at 35 g/ha [11]: 95 to 100% | pest or weed control at 70 g/ha [11]: 95 to 100% | pest or weed control at 17.5 g/ha [12]: 0 to 29% | pest or weed control at 35 g/ha [12]: 95 to 100% | pest or weed control at 70 g/ha [12]: 95 to 100%
